This note sets out measurements from ChEMBL document CHEMBL1134842, “Mononuclear platinum(II) complex with 2-phenylpyridine ligands showing high cytotoxicity against mouse sarcoma 180 cells acquiring high cisplatin resistance” (J Med Chem, 2001).

A short description of assay [1]: Cytotoxicity against S-180cisR cells by MTT assay. It counts as functional, cell-based, Mus musculus.
A short description of assay [2]: Cytotoxicity against S-180 cells by MTT assay. It counts as functional, cell-based, Mus musculus. In general terms: Formazan colour is commonly taken as a measure of viable cells.

In general, IC50 refers to the midpoint of a concentration-inhibition curve. Read a high IC50 as lower potency. For the substance CISPLATIN, the IC50 was determined as 59 µM in assay [1] and 2.4 µM in assay [2]. The substance cis-[PtCl2(NH3)(2-CH3C5H4N)] displayed an IC50 in assay [1] of 49 µM. For cis-[PtCl(2-C6H4C5H4)(2-C6H5C5H4N)], the IC50 in assay [1] was 8.6 µM; in assay [2], 3.1 µM. With cis-[PtCl2(NH3)(2-C6H5CH2C5H4N)], in assay [1], half-maximal inhibition (IC50) required 49 µM. cis-[PtCl2(NH3)(3-CH3CH2C5H4N)] yielded an IC50 in assay [1] of 49 µM. Consider cis-[PtCl2(NH3)(3-CH3C5H4N)], for which, in assay [1], 49 µM corresponded to half-maximal inhibition (IC50).
